Results as given in US9969755B2, “Photodynamic therapy photosensitizers” (The Royal Institution for the Advancement of …, priority 2016, dated 2018).
Where two headings read alike, the source gives them in different places. Values belong to the molecule of their own block, whether it stands above or below them.

What was measured:
[1] = Time-resolved fluorescence (fluorescence lifetime, TCSPC); type: physicochemical; settings: acetonitrile, room temperature
Method: Fluorescence lifetime measurements were carried out using a Picoquant Fluotime 200 time correlated single photon counting (TCSPC) setup employing an LDH-P-C-470 picosecond diode laser (Picoquant) with an excitation wavelength at 466 nm as the excitation source. The laser was controlled by a PDL 800 B picosecond laser driver from Picoquant. ^1HNMR spectra were recorded on a Bruker AV 400 instrument at 400 MHz. ^13CNMR spectra were recorder on a Varian VNMRS 500 instrument at 125 MHz. ESI mass spectra were measured on a Bruker maXis impact. Laser Flash Photolysis (LFP) experiments were carried out in a commercially available Luzchem 212 LFP setup provided with a Tektronix TDS 2000 digitizer for signal capture. A Nd:Yag laser (Continuum model Surelite I-10 using a second harmonic generators, model number SL-SHG-T1) was used for excitation at a wavelength of 532 nm. Phosphorescence experiments were recorded using a Cary Eclipse Fluorescence Spectrophotometer. Singlet Oxygen phosphorescence was recorded with a Hamamatsu NIR detector (peltier cooled at −62.8° C. operating at 800 V, coupled to a grating monochromator) upon excitation with a 532 nm Nd:YAG laser. A customized Luzchem Research LFP-111 system was employed to collect and process the data. The steady-state fluorescence spectra were recorded between 500-800 nm (depending on each compound) upon exciting at the wavelength of the absorbance maxima. The excitation and emission slits were tuned according to the fluorescence quantum yield of each BODIPY (i.e. for compound 7 excitation slits were 5 nm and for compound 4 we used 2 nm). Fluorescence was recorded every 1 nm using 0.1 s integration time. For the Fluorescence lifetime measurements, the excitation rate was 10 MHz, and the detection frequency was less than 100 kHz. Photons were collected at the magic angle. The fluorescence decay traces were fit using FluoFit (Picoquant) software. For steady-state and time-resolved fluorescence measurements a quartz cuvette with a 10 mm path length was used and all the solutions were prepared in air equilibrated acetonitrile.

[2] = ^1O2 quantum yield, photooxidation of DMA (indirect method); type: physicochemical; settings: consumption of dimethylanthracene, Rose Bengal standard, air equilibrated acetonitrile
Method: Solutions of 9,10-dimethylanthracene (DMA, 50 μM) and photosensitizers (compound 3-10) in air equilibrated acetonitrile were irradiated in 10 mm path length quartz cell (3 ml) with a Nd:Yag laser exciting at 532 nm. Laser excitation was performed at 10 Hz, providing one laser output for every discharge of the flashlamp. An irradiation time of 1 s is equivalent to 10 laser pulses. The energy of each pulse was 10 mJ. The kinetics of DMA photooxidation were studied by following the decrease of the absorbance at λ=377 nm. The observed rate constant (kobs) was obtained by a linear least-squares fit of the semilogarithmic plot of ln [DMA]0/[DMA] (see FIG. 14). Quantum yields of ^1O2 production (φΔ^I) were calculated comparing the kobs=kq [^1O2] for the corresponding photosensitizer with that for Rose Bengal, which was used as a reference (φΔ=0.54).^1 Measurements of the sample and the reference under the same conditions afforded φΔ^I for compounds (3-10) by direct comparison of the slope in the linear region of the plots.
For the indirect detection of ^1O2, it is possible to determine the kq value considering that the production of ^1O2 is constant compare with the initial concentration of DMA. According to these, a pseudo first-order kinetic for this reaction is proposed (equations 2 to 5): […]
The conversion of DMA followed pseudo-first order kinetics with the different photosensitizers (see FIG. 14). From equation 5, it was possible to determine kobs and ^1O2.

[3] = Absorption and steady-state fluorescence, fluorescence quantum yield in acetonitrile; type: physicochemical
Method: Absorption spectra were recorded using a Hitachi U-2800 UV-vis-NIR spectrophotometer. Luminescence spectra were recorded using a PTI QuantaMaster spectrofluorimeter using 10×10 mm quartz cuvettes and corrected for detector sensitivity.
The steady-state fluorescence spectra were recorded between 500-800 nm (depending on each compound) upon exciting at the wavelength of the absorbance maxima. The excitation and emission slits were tuned according to the fluorescence quantum yield of each BODIPY (i.e. for compound 7 excitation slits were 5 nm and for compound 4 we used 2 nm). Fluorescence was recorded every 1 nm using 0.1 s integration time. For the Fluorescence lifetime measurements, the excitation rate was 10 MHz, and the detection frequency was less than 100 kHz. Photons were collected at the magic angle. The fluorescence decay traces were fit using FluoFit (Picoquant) software. For steady-state and time-resolved fluorescence measurements a quartz cuvette with a 10 mm path length was used and all the solutions were prepared in air equilibrated acetonitrile.
Quantum yields of fluorescence were measured using PM605 in acetonitrile as a reference. Absorption and emission spectra of PM605 and the dye of interest were measured in acetonitrile at five different concentrations. The integrated intensity versus absorbance were then plotted and fitted linearly. Relative quantum yields of fluorescence for the unknown with respect to the standard were obtained from equation 1, where φ, Δ, and n refer, respectively, to the quantum yield, the slope obtained from the above-mentioned plot, and the solvent refractive index for the unknown (x) or standard (st).

[4] = ^1O2 quantum yield and lifetime, ^1O2 phosphorescence at 1270 nm (direct method); type: physicochemical
Method: The generation of singlet oxygen and its lifetime were determined from ^1O2 phosphorescence decay curves recorded at 1270 nm upon excitation with a 532 nm Nd:YAG laser. A total of 3 laser shots were applied to acquire a trace. […] Quantum yield of ^1O2 production (φΔ^D) were calculated comparing the intensity of ^1O2 phosphorescence at 1270 nm for the corresponding photosensitizer with that recorded for Rose Bengal (φΔ=0.54).^81

[5] = Laser flash photolysis: triplet excited state decay and quenching; type: physicochemical
Method: The 500 mJ/pulse laser output was attenuated yielding 10 mJ laser pulses of 6 ns in duration. Samples were prepared in acetonitrile. The final absorbance of the BODIPY dyes was 0.1. The concentration was kept low to avoid triplet-triplet annihilation. Each sample was de-oxygenated by purging with argon gas for at least 30 min. Quartz cells containing 10×10 mm path length were used. The decay of the BODIPYs was monitored between 420-440 and 520-550 nm (depending the BODIPY) following the laser excitation. Samples were irradiated with a total of 6 laser shots to acquire the temporal evolution of ΔOD.
A second layer of control was subsequently tested via LFP studies, to monitor the extent to which the trap segment deactivates the triplet excited state of the photosensitizes. […] The two quenchers emulate the trap segments utilized in 7 and 8, respectively.

[6] = from reference 54 (1) or 31 (2); cited from earlier work
[7] = cited from earlier work; for E^oB^+·/B (reversible oxidation potential): from reference 54 (1) or 31 (2)
[8] = cited from earlier work; for abs λmax / em λmax / Φf (fluorescence quantum yield) / ε (extinction coefficient): acetonitrile, room temperature, from reference 31; for E00 (HOMO-LUMO gap): from reference 54 (1) or 31 (2)
[9] = from reference 54 (1) or 31 (2); cited from earlier work; remark: listed apart in the source
[10] = acetonitrile, room temperature; from reference 31; cited from earlier work
[11] = system: E. coli ATCC 25922; assay: Antibacterial photodynamic inactivation, regular vs hydrogen peroxide stressed bacteria (CFU counts); type: cell-based; settings: in the dark; 7 with or without H2O2
Method: The microorganism used for this study is E. coli ATCC 25922. Stock cultures were preserved at −70° C. using glycerol 10% (v/v) as the cryoprotectant, and the strain was grown in Luria Bertania broth (LB). Bacterial culture was prepared inoculating a single colony from a pure culture. After overnight incubation at 37° C. for 18 h, the culture reached a density of approximately 1×10^9 CFU/mL and it was diluted to 10^6 CFU/mL.
At the end of the irradiation time, 100 μL aliquots were placed in 96 wells from each tube and serially diluted 10-fold in PBS to obtain dilutions of 10^1 to 10^4 fold, in addition to the original concentration, on agar plates to determine CFU. Viability counts were performed at 0 and 1 hour in either dark or light conditions from each dilution, 10 μL aliquots were plated on LB agar. Plates were streaked in triplicate and incubated for 18 h at 37° C. Each experiment was performed at least three times on different days.
To stress the cells we utilized hydrogen peroxide, known to stimulate ROS production in Gram-negative cells.^79,80 We incubated bacteria from the E. coli strain (10^6 colony forming units (CFU)/mL) with 500 nM hydrogen peroxide for 2 hours at 37° C. Following precipitation and resuspension of this bacteria in media with no H2O2, we added compound 7. In parallel, compound 7 was also added to bacteria that were not exposed to H2O2.

[12] = cited from earlier work; for overall singlet oxygen quenching rate constant kq: kq(physical)+kq(chemical), reference 74; for chemical quenching of ^1O2 / physical quenching of ^1O2: share of total quenching
[13] = Intermolecular quenching of ^1O2 phosphorescence by chromanol rings; type: physicochemical; settings: ^1O2 generated upon irradiation of compound 5, air equilibrated acetonitrile
Text: To test whether 7 is equally efficient at deactivating ^1O2 as α-tocopherol, we generated ^1O2 upon irradiation of compound 5 and monitored the ^1O2 phosphorescence lifetime in the presence of increasing amounts of either 7 or PMHC (an α-tocopherol analogue lacking the phytyl tail).

[14] = reference value; cited from earlier work

SMILES: CC1=C(I)C(C)=[N+]2C1=C(COC(=O)C1(C)CCc3c(C)c(O)c(C)c(C)c3O1)c1c(C)c(I)c(C)n1[B-]2(F)F (racemic) [Compound 8, 8-((±)-6-Hydroxy-2,5,7,8-tetramethylchromane-2-carbonyloxy)-2,6-diiodo-methyl-1,3,5,7-tetramethylpyrromethene Fluoroborate]
kdec (fluorescence decay rate constant) [1]: 555.6 ± 0.6 × 10^7 s^−1
knr (non-radiative decay rate constant, (1−φf)×kdec) [1]: 551.0 ± 0.5 × 10^7 s^−1
krad (radiative rate constant, φf×kdec) [1]: 5.0 ± 0.1 × 10^7 s^−1
ΦΔ^I (singlet oxygen quantum yield, indirect) [2]: 0.46 ± 0.03
drop in φf caused by the trap segment ([3]; 7 compared to reference 4, 8 compared to 5): ca. 2 fold
abs λmax ([3]; acetonitrile, room temperature): 552 nm
em λmax ([3]; acetonitrile, room temperature): 576 nm
Φf (fluorescence quantum yield) ([3]; acetonitrile, room temperature): 0.009 ± 0.002
ε (extinction coefficient) ([3]; acetonitrile, room temperature): 63000 M⁻¹ cm⁻¹
φΔ relative to control compound 5 [4]: ca. ½
ΦΔ^D (singlet oxygen quantum yield, direct) ([4]; ^1O2 phosphorescence at 1270 nm, air equilibrated acetonitrile): 0.57 ± 0.02
^1O2 phosphorescence decay lifetime ([4]; upon photosensitization, air equilibrated acetonitrile): 70 μs
increase in kT upon covalent attachment of the chromanol ([5]; 8 compared to its precursor 5): 6 fold
kq (triplet quenching rate constant) Q = PMHC ([5]; Ar saturated acetonitrile): 5.90 ± 0.09 × 10^8 M^−1s^−1
kT (triplet decay rate constant) Air equilibrated ([5]; acetonitrile, air equilibrated): 4.55 ± 0.02 × 10^6 s^−1
kT (triplet decay rate constant) Argon Purged ([5]; acetonitrile, argon purged): 9.16 ± 0.05 × 10^4 s^−1
kq (triplet quenching rate constant) Q = ^3O2 ([5]; acetonitrile, calculated with oxygen solubility 2.42 mM): 1.88 ± 0.02 × 10^9 M^−1s^−1

SMILES: CC1=CC(C)=[N+]2C1=C(C)c1c(C)cc(C)n1[B-]2(F)F [Compound 1, 1,3,5,7,8-pentamethyl-Pyrromethene Fluoroborate]
εHOMO [6]: −5.36 ± 0.01 eV
εLUMO [6]: −2.31 ± 0.05 eV
E^oB^+·/B (reversible oxidation potential) [7]: 0.77
abs λmax [8]: 491 nm
em λmax [8]: 498 nm
Φf (fluorescence quantum yield) [8]: 0.81 ± 0.02
ε (extinction coefficient) [8]: 97000 M⁻¹ cm⁻¹
E00 (HOMO-LUMO gap) [8]: 2.53 eV
ΔGeT (Singlet), Gibbs free energy for PeT [9]: −0.26 eV
kdec (fluorescence decay rate constant) [10]: 17.8 ± 0.1 × 10^7 s^−1
knr (non-radiative decay rate constant) [10]: 3.3 ± 0.1 × 10^7 s^−1
krad (radiative rate constant) [10]: 14.4 ± 0.1 × 10^7 s^−1

SMILES: CC(=O)OCC1=C2C(C)=CC(C)=[N+]2[B-](F)(F)n2c(C)cc(C)c21 [Compound 2, 8-Acetoxymethyl-1,3,5,7-tetramethyl Pyrromethene Fluoroborate]
εHOMO [6]: −5.49 ± 0.01 eV
εLUMO [6]: −2.61 ± 0.05 eV
E^opc (cathodic peak potential) ([7]; from reference 31): −1.44
E^oB^+·/B (reversible oxidation potential) [7]: 0.75
abs λmax [8]: 515 nm
em λmax [8]: 530 nm
Φf (fluorescence quantum yield) [8]: 0.87 ± 0.02
ε (extinction coefficient) [8]: 81000 M⁻¹ cm⁻¹
E00 (HOMO-LUMO gap) [8]: 2.38 eV
ΔGeT (Singlet), Gibbs free energy for PeT [9]: −0.24 eV
kdec (fluorescence decay rate constant) [10]: 15.0 ± 0.2 × 10^7 s^−1
knr (non-radiative decay rate constant) [10]: 2.0 ± 0.1 × 10^7 s^−1
krad (radiative rate constant) [10]: 13.1 ± 0.2 × 10^7 s^−1

SMILES: OO [Compound H2O2, hydrogen peroxide, reference compound]
colony forming units, dark controls [11]: no effect in the CFU

singlet oxygen quenching rate constant kq [13]: 4e+08 M⁻¹ s⁻¹
SMILES: Cc1c(C)c2c(c(C)c1O)CCC(C)(C)O2 [PMHC, 2,2,5,7,8-pentamethyl-6-hydroxy-chroman]
overall singlet oxygen quenching rate constant kq [12]: 1.96e+08 M⁻¹ s⁻¹
chemical quenching of ^1O2 [12]: 5%
physical quenching of ^1O2 [12]: 95%

SMILES: O=C([O-])c1c(Cl)c(Cl)c(Cl)c(Cl)c1-c1c2cc(I)c(=O)c(I)c-2oc2c(I)c([O-])c(I)cc12.[Na+].[Na+] [Rose Bengal]
φΔ of reference standard [14]: 0.54

SMILES: Cc1c(C)c2c(c(C)c1O)CC[C@@](C)(CCC[C@H](C)CCC[C@H](C)CCCC(C)C)O2 [α-tocopherol]
overall singlet oxygen quenching rate constant kq [12]: 2.06e+08 M⁻¹ s⁻¹
chemical quenching of ^1O2 [12]: 7%
physical quenching of ^1O2 [12]: 93%
